For assay [1], the target named is GDP-bound NRAS wild-type protein (Homo sapiens, UniProt P01111). In words: Binding to NRAS by surface plasmon resonance (SPR), Single Cycle Kinetics. The conditions noted are these: SPR, GDP-bound NRAS wild-type protein vs GDP-bound KRAS wild-type protein.
The target in assay [2] is GDP-bound HRAS wild-type protein (Homo sapiens, UniProt P01112). In words: Binding to HRAS by surface plasmon resonance (SPR), Single Cycle Kinetics. The conditions noted are these: SPR, GDP-bound HRAS wild-type protein vs GDP-bound KRAS wild-type protein.
Assay [3] concerns the target GDP-bound KRAS wild-type protein (Homo sapiens, UniProt P01116). In words: Binding to KRAS by surface plasmon resonance (SPR), Single Cycle Kinetics. The following applies: SPR, Single Cycle Kinetics, GDP-bound KRAS wild-type protein; read-out: KRAS KD.

Chain of GDP-bound HRAS wild-type protein (P01112 whole entry): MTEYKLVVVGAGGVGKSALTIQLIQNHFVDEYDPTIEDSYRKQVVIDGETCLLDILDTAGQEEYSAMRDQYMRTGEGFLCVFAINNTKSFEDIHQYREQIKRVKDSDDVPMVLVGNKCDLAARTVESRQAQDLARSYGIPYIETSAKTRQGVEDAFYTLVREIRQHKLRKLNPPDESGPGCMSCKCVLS
Chain of GDP-bound KRAS wild-type protein (P01116 whole entry): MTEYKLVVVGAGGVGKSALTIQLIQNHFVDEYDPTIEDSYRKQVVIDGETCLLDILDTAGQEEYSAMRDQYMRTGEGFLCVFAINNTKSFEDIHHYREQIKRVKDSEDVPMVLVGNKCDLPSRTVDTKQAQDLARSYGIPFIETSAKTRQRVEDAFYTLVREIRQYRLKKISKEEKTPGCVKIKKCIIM
Chain of GDP-bound NRAS wild-type protein (P01111 whole entry): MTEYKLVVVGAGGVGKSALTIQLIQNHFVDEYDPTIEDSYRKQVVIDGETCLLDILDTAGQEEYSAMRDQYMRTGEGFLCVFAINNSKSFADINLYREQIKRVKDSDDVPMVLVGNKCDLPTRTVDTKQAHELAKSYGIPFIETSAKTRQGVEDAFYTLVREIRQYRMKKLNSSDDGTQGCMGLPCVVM

For `CCC[C@H]1C(=O)N[C@@H]([C@@H](C)CC)C(=O)N(C)CC(=O)N(C)[C@H]2C/C=C\CCN(C2=O)[C@@H](Cc2ccc(C)cc2)C(=O)N(C)CC(=O)N[C@@H](CCc2ccc(C(F)(F)F)c(Cl)c2)C(=O)N2C[C@H](OCC)C[C@H]2C(=O)NC2(CC(C)(C)C2)C(=O)N(C)[C@@H](CC(C)(C)C)C(=O)N(C)[C@H](C(=O)N(C)C)CC(=O)N1C` [PP2230], in assay [1], the “NRAS/KRAS (ratio of KD value for NRAS to KD value for KRAS)” value is “A (a compound having 10 or more and less than 20 is denoted as A)”. Further, the “HRAS/KRAS (ratio of KD value for HRAS to KD value for KRAS)” value in assay [2] was “A (a compound having 10 or more and less than 20 is denoted as A)”. For the same compound, the Kd in assay [3] amounted to 0.082 nM.
For the compound `CCC[C@@H]1C[C@H]2C(=O)NC3(CCC3)C(=O)N(C)[C@@H](C3CCCC3)C(=O)N(C)[C@H](C(=O)N(C)C)CC(=O)N(C)[C@@H](CC(C)C)C(=O)N[C@@H]([C@@H](C)CC)C(=O)N(C)CC(=O)N(C)[C@H]3C/C=C\CCN(C3=O)[C@@H](Cc3ccc(C)cc3)C(=O)N(C)CC(=O)N[C@@H](CCc3cc(F)c(C(F)(F)F)c(F)c3)C(=O)N2C1` [PP2231], the “NRAS/KRAS (ratio of KD value for NRAS to KD value for KRAS)” value in assay [1] is “A (a compound having 10 or more and less than 20 is denoted as A)”. Also, the “HRAS/KRAS (ratio of KD value for HRAS to KD value for KRAS)” value in assay [2] is “B (a compound having 3 or more and less than 10 is denoted as B)”. In addition, the Kd in assay [3] was 0.18 nM.
For `CCCOC[C@H]1C(=O)N[C@@H]([C@@H](C)CC)C(=O)N(C)CC(=O)N(C)[C@H]2C/C=C\CCN(C2=O)[C@@H](Cc2ccc(C)cc2)C(=O)N(C)CC(=O)N[C@@H](CCc2ccc(C(F)(F)F)c(Cl)c2)C(=O)N2C[C@H](C)C[C@H]2C(=O)NC2(CC(C)(C)C2)C(=O)N(C)[C@@H](C2CCCC2)C(=O)N(C)[C@H](C(=O)N(C)C)CC(=O)N1C` [PP2234], the “NRAS/KRAS (ratio of KD value for NRAS to KD value for KRAS)” value in assay [1] is “A (a compound having 10 or more and less than 20 is denoted as A)”. Further, in assay [2], the “HRAS/KRAS (ratio of KD value for HRAS to KD value for KRAS)” value was “A (a compound having 10 or more and less than 20 is denoted as A)”. The Kd in assay [3] was 0.19 nM.
With `CCC[C@@H]1C[C@H]2C(=O)NC3(CCC3)C(=O)N(C)[C@@H](C3CCCC3)C(=O)N(C)[C@H](C(=O)N(C)C)CC(=O)N(C)[C@@H](CCC)C(=O)N[C@@H]([C@@H](C)CC)C(=O)N(C)CC(=O)N(C)[C@H]3C/C=C\CCN(C3=O)[C@@H](Cc3ccc(C)cc3)C(=O)N(C)CC(=O)N[C@@H](CCc3ccc(C(F)(F)F)c(Cl)c3)C(=O)N2C1` [PP2238], in assay [1], the “NRAS/KRAS (ratio of KD value for NRAS to KD value for KRAS)” value was “A (a compound having 10 or more and less than 20 is denoted as A)”. In addition, the “HRAS/KRAS (ratio of KD value for HRAS to KD value for KRAS)” value in assay [2] is “A (a compound having 10 or more and less than 20 is denoted as A)”. In addition, the Kd in assay [3] was 0.2 nM.
With `CCO[C@@H]1C[C@H]2C(=O)NC3(CC(C)(C)C3)C(=O)N(C)[C@@H](C3CCCC3)C(=O)N(C)[C@H](C(=O)N(C)CC)CC(=O)N(C)[C@H]3CCCCCc4ccc(cc4)C[C@@H](C(=O)N(C)CC(=O)N[C@@H](CCc4ccc(C(F)(F)F)c(OC)c4)C(=O)N2C1)N1CC/C=C\C[C@@H](C1=O)N(C)C(=O)CN(C)C(=O)[C@H]([C@@H](C)CC)NC3=O` [PP2259], the “NRAS/KRAS (ratio of KD value for NRAS to KD value for KRAS)” value in assay [1] was “A (a compound having 10 or more and less than 20 is denoted as A)”. Further, the “HRAS/KRAS (ratio of KD value for HRAS to KD value for KRAS)” value in assay [2] was “B (a compound having 3 or more and less than 10 is denoted as B)”. The Kd in assay [3] was 0.12 nM.
With `CCO[C@@H]1C[C@H]2C(=O)NC3(CC(C)(C)C3)C(=O)N(C)[C@@H](C3CCCC3)C(=O)N(C)[C@H](C(=O)N(C)CC)CC(=O)N(C)[C@H]3CCCCCCc4ccc(cc4)C[C@@H](C(=O)N(C)CC(=O)N[C@@H](CCc4ccc(C(F)(F)F)c(OC)c4)C(=O)N2C1)N1CC/C=C\C[C@@H](C1=O)N(C)C(=O)CN(C)C(=O)[C@H]([C@@H](C)CC)NC3=O` [PP2260, (1S,7S,11R,13S,19S,22S,26S,29S,35S,37Z)-19-cyclopentyl-11-ethoxy-N-ethyl-7-[2-[3-methoxy-4-(trifluoromethyl)phenyl]ethyl]-N,3,3′,3′,18,21,25,31,34-nonamethyl-29-[(1S)-1-methylpropyl]-2,5,8,14,17,20,24,27,30,33,55-undecaoxo-spiro[3,6,9,15,18,21,25,28,31,34,41-undecazapentacyclo[24.15.11.2^43,46.1^35,41.0^9,13]pentapentaconta-37,43(54),44,46(53)-tetraene-16,1′-cyclobutane]-22-carboxamide], the “NRAS/KRAS (ratio of KD value for NRAS to KD value for KRAS)” value in assay [1] was “A (a compound having 10 or more and less than 20 is denoted as A)”. Further, in assay [2], the “HRAS/KRAS (ratio of KD value for HRAS to KD value for KRAS)” value is “A (a compound having 10 or more and less than 20 is denoted as A)”. For the same compound, the Kd in assay [3] is 0.12 nM.
As for `CCO[C@@H]1C[C@H]2C(=O)NC3(CCC3)C(=O)N(C)[C@@H](C3CCCC3)C(=O)N(C)[C@H](C(=O)N(C)C)CC(=O)N(C)[C@H]3CCCCCc4ccc(cc4)C[C@@H](C(=O)N(C)CC(=O)N[C@@H](CCc4cc(F)c(C(F)(F)F)c(F)c4)C(=O)N2C1)N1CC/C=C\C[C@@H](C1=O)N(C)C(=O)CN(C)C(=O)[C@H]([C@@H](C)CC)NC3=O` [PP2261], the “NRAS/KRAS (ratio of KD value for NRAS to KD value for KRAS)” value in assay [1] is “A (a compound having 10 or more and less than 20 is denoted as A)”. Besides, the “HRAS/KRAS (ratio of KD value for HRAS to KD value for KRAS)” value in assay [2] is “A (a compound having 10 or more and less than 20 is denoted as A)”. Besides, in assay [3], the Kd was 0.18 nM.
Consider `CCO[C@@H]1C[C@H]2C(=O)NC3(CCC3)C(=O)N(C)[C@@H](C3CCCC3)C(=O)N(C)[C@H](C(=O)N(C)C)CC(=O)N(C)[C@H]3CCCCCc4ccc(cc4)C[C@@H](C(=O)N(C)CC(=O)N[C@@H](CCc4ccc(C(F)(F)F)c(OC)c4)C(=O)N2C1)N1CC/C=C\C[C@@H](C1=O)N(C)C(=O)CN(C)C(=O)[C@H]([C@@H](C)CC)NC3=O` [PP2262], for which, in assay [1], the “NRAS/KRAS (ratio of KD value for NRAS to KD value for KRAS)” value was “A (a compound having 10 or more and less than 20 is denoted as A)”. The “HRAS/KRAS (ratio of KD value for HRAS to KD value for KRAS)” value in assay [2] was “B (a compound having 3 or more and less than 10 is denoted as B)”. In addition, in assay [3], the Kd worked out at 0.24 nM.
As to `CCO[C@@H]1C[C@H]2C(=O)NC3(CCC3)C(=O)N(C)[C@@H](C3CCCC3)C(=O)N(C)[C@H](C(=O)N(C)C)CC(=O)N(C)[C@H]3CCCCCCc4ccc(cc4)C[C@@H](C(=O)N(C)CC(=O)N[C@@H](CCc4ccc(C(F)(F)F)c(OC)c4)C(=O)N2C1)N1CC/C=C\C[C@@H](C1=O)N(C)C(=O)CN(C)C(=O)[C@H]([C@@H](C)CC)NC3=O` [PP2264], the “NRAS/KRAS (ratio of KD value for NRAS to KD value for KRAS)” value in assay [1] is recorded as “AA (a compound having 20 or more is denoted as AA)”. Moreover, in assay [2], the “HRAS/KRAS (ratio of KD value for HRAS to KD value for KRAS)” value is “A (a compound having 10 or more and less than 20 is denoted as A)”. Besides, the Kd in assay [3] amounted to 0.11 nM.
Turning to `CC[C@H](C)[C@@H]1NC(=O)[C@H](CC(C)C)N(C)C(=O)C[C@@H](C(=O)N(C)C)N(C)C(=O)[C@H](C2CCCC2)N(C)C(=O)C2(CCCC2)NC(=O)[C@@H]2C[C@H](C)CN2C(=O)[C@H](CCc2cc(F)c(C(F)(F)F)c(F)c2)NC(=O)CN(C)C(=O)[C@H](Cc2ccc(C(F)(F)F)cc2)N2CC/C=C\C[C@@H](C2=O)N(C)C(=O)CN(C)C1=O` [PP2268], the “NRAS/KRAS (ratio of KD value for NRAS to KD value for KRAS)” value in assay [1] is “A (a compound having 10 or more and less than 20 is denoted as A)”. In addition, the “HRAS/KRAS (ratio of KD value for HRAS to KD value for KRAS)” value in assay [2] is “A (a compound having 10 or more and less than 20 is denoted as A)”. For the same compound, the equilibrium dissociation constant (Kd) in assay [3] was found to be 0.12 nM.

Values taken from patent US20240158446A1, “CYCLIC COMPOUND HAVING SELECTIVE INHIBITORY ACTION ON KRAS OVER HRAS AND NRAS” (CHUGAI SEIYAKU KABUSHIKI KAISHA, priority 2021, published 2024).
